Measured values published in BindingDB's records for patent US10294246 (Merck Patent, 2019).

Molecular target: T1, Proteasome subunit beta type-8 (Homo sapiens, UniProt P28062)
T1 sequence (P28062 whole entry): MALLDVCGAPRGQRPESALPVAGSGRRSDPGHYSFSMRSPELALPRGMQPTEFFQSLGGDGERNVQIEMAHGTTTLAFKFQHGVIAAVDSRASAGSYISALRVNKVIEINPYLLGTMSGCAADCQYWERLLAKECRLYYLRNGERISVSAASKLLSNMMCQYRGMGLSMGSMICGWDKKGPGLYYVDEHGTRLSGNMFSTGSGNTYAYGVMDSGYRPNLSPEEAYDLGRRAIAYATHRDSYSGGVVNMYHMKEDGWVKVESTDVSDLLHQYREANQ
Test: Determination of LMP7 Activity
Method: Measurement of LMP7 inhibition is performed in 384 well format based on fluorescence intensity assay.Purified human immunoproteasome (0.25 nM) and serial diluted compounds in DMSO (range of concentrations from 30 μM to […]) or controls are incubated for 20 minutes at 25° C. in assay buffer containing 50 mM Tris pH 7.4, 0.03% SDS, 1 mM EDTA and 1% DMSO. The reaction is initiated by the addition of the fluorogenic peptide substrate, Suc-LLVY-AMC (Bachem 1-1395), at a concentration of 40 μM. After 60 minutes of incubation at 37° C., fluorescence intensity is measured at λex=350 nm and λem=450 nm with a fluorescence reader (Perkin Elmer Envision reader or equivalent).

Row | IC50 | SMILES
1 | < 50 nM | C[C@H](C(=O)N[C@@H](Cc1coc2ccccc12)B(O)O)c1ccccc1 [US10294246, Compound No. 37]
2 | < 50 nM | CC(=O)Nc1ccc(CC(=O)N[C@@H](Cc2coc3ccccc23)B(O)O)cc1 [US10294246, Compound No. 26]
3 | < 50 nM | Cc1ccc(OCCC(=O)N[C@@H](Cc2coc3ccccc23)B(O)O)cc1 [US10294246, Compound No. 7]
4 | < 50 nM | CO[C@H](C(=O)N[C@@H](Cc1coc2ccccc12)B(O)O)c1ccccc1 [US10294246, Compound No. 33]
5 | < 50 nM | CC(=O)Nc1cccc(CC(=O)N[C@@H](Cc2coc3ccccc23)B(O)O)c1 [US10294246, Compound No. 32]
6 | < 50 nM | COc1ccc(C(F)(F)C(=O)N[C@@H](Cc2coc3ccccc23)B(O)O)cc1 [US10294246, Compound No. 51]
7 | < 50 nM | CCO[C@@H](C(=O)N[C@@H](Cc1coc2ccccc12)B(O)O)c1ccccc1 [US10294246, Compound No. 70]
